# Results reported in ChEMBL document CHEMBL2074087, “Inhibition of the P-glycoprotein- and multidrug resistance protein-mediated efflux of anthracyclines and calceinacetoxymethyl ester by PAK-104P” (Eur J Pharmacol, 2000).
# pKi: −log10 of the molar value.
# Target: ATP-dependent translocase ABCB1 (Homo sapiens, UniProt P08183)
# Test: TP_TRANSPORTER: inhibition of Hydroxydoxorubicin efflux in K562/Adr cells
# Format: functional, cell-based
# ATP-dependent translocase ABCB1, sequence (P08183 whole entry): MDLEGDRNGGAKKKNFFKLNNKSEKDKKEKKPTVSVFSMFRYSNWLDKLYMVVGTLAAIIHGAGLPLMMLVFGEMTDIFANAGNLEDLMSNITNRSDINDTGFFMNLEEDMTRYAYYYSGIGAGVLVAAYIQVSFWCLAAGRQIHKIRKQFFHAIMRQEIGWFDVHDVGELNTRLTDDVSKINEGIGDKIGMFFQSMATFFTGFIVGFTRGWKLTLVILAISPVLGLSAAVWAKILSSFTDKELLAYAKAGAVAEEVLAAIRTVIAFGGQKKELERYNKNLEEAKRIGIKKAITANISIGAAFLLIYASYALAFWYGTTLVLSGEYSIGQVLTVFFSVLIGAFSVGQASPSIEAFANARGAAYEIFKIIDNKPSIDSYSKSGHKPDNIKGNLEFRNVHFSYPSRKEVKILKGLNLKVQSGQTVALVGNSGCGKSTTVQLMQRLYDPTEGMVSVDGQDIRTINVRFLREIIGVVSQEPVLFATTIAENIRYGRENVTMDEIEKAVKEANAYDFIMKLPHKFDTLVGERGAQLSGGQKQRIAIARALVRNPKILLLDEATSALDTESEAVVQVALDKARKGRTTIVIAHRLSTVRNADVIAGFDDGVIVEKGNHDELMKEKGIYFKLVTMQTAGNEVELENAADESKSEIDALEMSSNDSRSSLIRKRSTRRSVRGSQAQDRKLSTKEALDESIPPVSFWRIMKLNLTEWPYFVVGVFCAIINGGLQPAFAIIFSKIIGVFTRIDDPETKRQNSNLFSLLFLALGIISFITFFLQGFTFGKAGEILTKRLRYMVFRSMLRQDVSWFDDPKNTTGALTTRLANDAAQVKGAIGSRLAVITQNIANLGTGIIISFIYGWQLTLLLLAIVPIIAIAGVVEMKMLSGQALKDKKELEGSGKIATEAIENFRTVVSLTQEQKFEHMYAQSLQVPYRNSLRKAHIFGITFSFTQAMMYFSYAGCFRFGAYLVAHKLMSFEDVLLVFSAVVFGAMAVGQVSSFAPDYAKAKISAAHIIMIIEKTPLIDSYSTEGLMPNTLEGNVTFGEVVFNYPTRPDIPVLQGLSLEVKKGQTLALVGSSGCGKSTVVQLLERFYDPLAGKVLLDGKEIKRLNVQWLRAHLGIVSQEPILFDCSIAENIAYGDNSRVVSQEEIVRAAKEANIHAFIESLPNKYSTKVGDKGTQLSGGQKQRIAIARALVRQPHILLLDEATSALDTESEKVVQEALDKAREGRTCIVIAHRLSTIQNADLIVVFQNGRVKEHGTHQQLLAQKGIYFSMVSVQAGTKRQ
smiles,measurement,value
Cc1nc(C)c(P2(=O)O[C@H](C)C[C@@H](C)O2)c(-c2cccc([N+](=O)[O-])c2)c1C(=O)OCCN1CCN(C(c2ccccc2)c2ccccc2)CC1 (stereo partly specified),pKi,6.68
